Data reported in ChEMBL document CHEMBL1201862, “PubChem BioAssay data set” (2004).
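1) Cells in 96-well plates. 2) Compound, 48 h, 5 concentrations. 3) Linear interpolation between surrounding doses. 4) Unreached endpoint = highest concentration. Here, GI50 denotes the concentration required for 50% inhibition of growth.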 Active and inactive are the calls of the source. Rule as the data show it: active = GI50 up to about 1.1 µM and inactive = higher.

Legend:
Test in all cases: inhibition of tumour cell growth, NCI panel, 48 h
HOP-62 = test system: HOP-62
RPMI-8226 = test system: RPMI-8226
SK-MEL-5 = test system: SK-MEL-5
A549 = test system: A549
OVCAR-5 = test system: OVCAR-5
NCI-H23 = test system: NCI-H23
BT-549 = test system: BT-549
Malme-3M = test system: Malme-3M
HT-29 = test system: HT-29
KM12 = test system: KM12
COLO 205 = test system: COLO 205
UACC-62 = test system: UACC-62
HOP-92 = test system: HOP-92
MDA-N = test system: MDA-N
NCI-H226 = test system: NCI-H226
NCI-H522 = test system: NCI-H522
EKVX = test system: EKVX
A498 = test system: A498
NCI/ADR-RES = test system: NCI/ADR-RES
RXF 393 = test system: RXF 393

SMILES | GI50 (HOP-62) | GI50 (RPMI-8226) | GI50 (SK-MEL-5) | GI50 (A549) | GI50 (OVCAR-5) | GI50 (NCI-H23) | GI50 (BT-549) | GI50 (Malme-3M) | GI50 (HT-29) | GI50 (KM12) | GI50 (COLO 205) | GI50 (UACC-62) | GI50 (HOP-92) | GI50 (MDA-N) | GI50 (NCI-H226) | GI50 (NCI-H522) | GI50 (EKVX) | GI50 (A498) | GI50 (NCI/ADR-RES) | GI50 (RXF 393)
COc1cc(C2c3cc4c(cc3OC(O)C2C)OCO4)cc(OC)c1O (stereo not given) | 10.7 µM (inactive) | 7.4 µM (inactive) | 4.66 µM (inactive) | 7.64 µM (inactive) | 46.8 µM (inactive) | 28.8 µM (inactive) | 7.26 µM (inactive) | 3.86 µM (inactive) | 4.7 µM (inactive) | 4.76 µM (inactive) | 18.2 µM (inactive) | 3.49 µM (inactive) | 15.9 µM (inactive) | 1.84 µM (inactive) | 17 µM (inactive) | 2.12 µM (inactive) | 19.2 µM (inactive) | 23 µM (inactive) | 3.49 µM (inactive) | 7.35 µM (inactive)
CCCCCCCCCCCNC=O | > 100 µM (inactive) | 28.1 µM (inactive) | 36.9 µM (inactive) | 51.3 µM (inactive) | 80.9 µM (inactive) | 44.5 µM (inactive) | 21.8 µM (inactive) | 54 µM (inactive) | 37.3 µM (inactive) | 45.3 µM (inactive) | 49.3 µM (inactive) | 51.2 µM (inactive) | 54.3 µM (inactive) | 56.6 µM (inactive) | 94.6 µM (inactive) | 24.5 µM (inactive) | 52.8 µM (inactive) | 22.4 µM (inactive) | 30.6 µM (inactive) | 48.8 µM (inactive)
O=C(O)C(C1NCCS1)N1C(=O)c2ccccc2C1=O (stereo not given) | > 100 µM (inactive) | > 100 µM (inactive) | > 100 µM (inactive) | > 100 µM (inactive) | > 100 µM (inactive) | > 100 µM (inactive) | > 100 µM (inactive) | > 100 µM (inactive) | > 100 µM (inactive) | > 100 µM (inactive) | > 100 µM (inactive) | > 100 µM (inactive) | > 100 µM (inactive) | > 100 µM (inactive) | > 100 µM (inactive) | > 100 µM (inactive) | > 100 µM (inactive) | > 100 µM (inactive) | > 100 µM (inactive) | > 100 µM (inactive)
CC(=O)C1=C(C)N(c2ccccc2)C2(O)C3=C(C(=O)c4ccccc4C3=O)C(O)=CC12Cl (stereo not given) | 17.2 µM (inactive) | 0.855 µM (active) | 2.91 µM (inactive) | 7.29 µM (inactive) | 20 µM (inactive) | 6.55 µM (inactive) | 8.11 µM (inactive) | 1.88 µM (inactive) | 3.1 µM (inactive) | 4.17 µM (inactive) | 5.21 µM (inactive) | 13 µM (inactive) | 7.08 µM (inactive) | 2.94 µM (inactive) | 21.4 µM (inactive) | 2.55 µM (inactive) | 8.51 µM (inactive) | 13 µM (inactive) | 3.73 µM (inactive) | 5.85 µM (inactive)
OC1(c2ccccc2)CCN(Cc2c[nH]c3ccccc23)CC1 | > 100 µM (inactive) | 39.5 µM (inactive) | 36.3 µM (inactive) | > 100 µM (inactive) | > 100 µM (inactive) | 96.6 µM (inactive) | > 100 µM (inactive) | 23.2 µM (inactive) | 42.9 µM (inactive) | 75.3 µM (inactive) | 17.5 µM (inactive) | 47.8 µM (inactive) | > 100 µM (inactive) | 30.7 µM (inactive) | > 100 µM (inactive) | > 100 µM (inactive) | > 100 µM (inactive) | 92.3 µM (inactive) | > 100 µM (inactive) | 63.2 µM (inactive)
N#Cc1nc(C#N)c(N)[nH]1 | > 100 µM (inactive) | > 100 µM (inactive) | > 100 µM (inactive) | > 100 µM (inactive) | > 100 µM (inactive) | > 100 µM (inactive) | > 100 µM (inactive) | > 100 µM (inactive) | > 100 µM (inactive) | > 100 µM (inactive) | > 100 µM (inactive) | > 100 µM (inactive) | > 100 µM (inactive) | > 100 µM (inactive) | > 100 µM (inactive) | > 100 µM (inactive) | > 100 µM (inactive) | > 100 µM (inactive) | > 100 µM (inactive) | > 100 µM (inactive)
O=C(NN1CCCCC1)c1cc2cc(CCl)ccc2oc1=O | 19.4 µM (inactive) | 24 µM (inactive) | 17.7 µM (inactive) | 19.6 µM (inactive) | 17.2 µM (inactive) | 16.5 µM (inactive) | 19.3 µM (inactive) | 10.5 µM (inactive) | 14.9 µM (inactive) | 22.1 µM (inactive) | 17.9 µM (inactive) | 27.7 µM (inactive) | 10.4 µM (inactive) | 15.7 µM (inactive) | 20.6 µM (inactive) | 8.75 µM (inactive) | 14.2 µM (inactive) | 75.2 µM (inactive) | 23.1 µM (inactive) | 18.5 µM (inactive)
COc1cc(/C=N/N=C2NCCCCN2)ccc1O | > 100 µM (inactive) | > 100 µM (inactive) | 40 µM (inactive) | > 100 µM (inactive) | > 100 µM (inactive) | > 100 µM (inactive) | > 100 µM (inactive) | > 100 µM (inactive) | 80 µM (inactive) | > 100 µM (inactive) | > 100 µM (inactive) | > 100 µM (inactive) | > 100 µM (inactive) | > 100 µM (inactive) | > 100 µM (inactive) | > 100 µM (inactive) | > 100 µM (inactive) | 96.2 µM (inactive) | > 100 µM (inactive) | > 100 µM (inactive)
O=[N+]([O-])c1cc2oc(COc3ccccc3)nc2cc1Cl | 20.4 µM (inactive) | 23.7 µM (inactive) | 12.7 µM (inactive) | 33.5 µM (inactive) | 28.4 µM (inactive) | 17.1 µM (inactive) | 20.8 µM (inactive) | 33.7 µM (inactive) | 32.5 µM (inactive) | 20.9 µM (inactive) | 20.6 µM (inactive) | 17.1 µM (inactive) | 22.5 µM (inactive) | 25.9 µM (inactive) | 17 µM (inactive) | 18 µM (inactive) | 21.9 µM (inactive) | 33.1 µM (inactive) | 21.4 µM (inactive) | 22.1 µM (inactive)
NS(=O)(=O)c1ccc(NS(=O)(=O)c2ccc(NC(=O)N(c3ccccc3)c3ccccc3)cc2)cc1 | 52.8 µM (inactive) | 24.8 µM (inactive) | 68.2 µM (inactive) | > 100 µM (inactive) | > 100 µM (inactive) | > 100 µM (inactive) | 87.1 µM (inactive) | 27.3 µM (inactive) | 57.1 µM (inactive) | 60.5 µM (inactive) | > 100 µM (inactive) | 63.4 µM (inactive) | 51.3 µM (inactive) | 32.3 µM (inactive) | > 100 µM (inactive) | 30.5 µM (inactive) | > 100 µM (inactive) | > 100 µM (inactive) | > 100 µM (inactive) | 21.9 µM (inactive)
